From ChEMBL document CHEMBL1201862, “PubChem BioAssay data set” (2004)
The source made the active and inactive calls.

Columns and labels:
[1] = Luminescence-based dose response cell-based high throughput screening assay for cytotoxic compounds using the IEC-6 intestinal epithelial cell line. [Related pubchem assays: 1858 (Summary AID.), 1825 (Counterscreen.), 1907 (Confirmation screen.)]; type: functional
Escherichia coli [2] = assay: microbe, parasite or virus in culture
[3] = DRD fibroblast viability loss – cell-based, non-viral oncogenic, luminescence, dose response (AID 1934); type: functional; conditions: Homo sapiens
BJ [4] = assay: growth inhibition of engineered Ras-driven BJ cells – cell-based, alamar blue fluorescence, cherrypicked samples, dose response (AID 2631); type: functional; conditions: Homo sapiens;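 note: confirmatory dose-response assay in RAS-dependent BJ fibroblasts engineered with TERT, LT and ST, with cytotoxicity read by fluorescence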
BJ [5] = assay: BJ-TERT-LT-ST fibroblast viability loss – cell-based, RAS-independent, luminescence, dose response (AID 1935); type: functional; conditions: Homo sapiens;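 note: BJ fibroblasts immortalized with TERT plus LT and ST oncogenes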
[6] = molecular target: T1, Type-1 angiotensin II receptor (Homo sapiens, UniProt P30556); assay: antagonism of angiotensin II type 1 receptor – cell-based, uHTS hits, selectivity assay for APJ receptor antagonist project, dose response (AID 463214); type: functional;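 note: antagonist potency against angiotensin II stimulated AT1 response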
T1 sequence (P30556 whole entry): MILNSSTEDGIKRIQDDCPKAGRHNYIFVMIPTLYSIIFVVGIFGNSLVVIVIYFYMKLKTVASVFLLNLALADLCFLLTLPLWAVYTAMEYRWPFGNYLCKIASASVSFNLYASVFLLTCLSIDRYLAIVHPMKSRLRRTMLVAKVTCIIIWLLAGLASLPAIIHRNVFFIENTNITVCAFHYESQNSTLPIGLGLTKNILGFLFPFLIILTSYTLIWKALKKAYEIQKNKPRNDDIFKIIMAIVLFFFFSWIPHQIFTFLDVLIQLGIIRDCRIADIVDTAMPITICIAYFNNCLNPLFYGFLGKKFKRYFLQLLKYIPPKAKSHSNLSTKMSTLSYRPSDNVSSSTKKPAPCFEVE

Beta-galactosidase = Beta-galactosidase (Escherichia coli, UniProt Q8VNN2); assay: PubChem AID 485352; type: functional
[7] = microbe, parasite or virus in culture; type: functional; conditions: Mycobacterium tuberculosis
Vero = assay: mammalian cell viability reduction – secondary assay, cytotoxicity control for West Nile virus antiviral project, dose response (AID 1650); type: functional; conditions: Chlorocebus sabaeus
[8] = molecular target: Heat shock protein HSP 90-alpha (Homo sapiens, UniProt P07900); type: functional, organism-based
BJ [9] = assay: BJ-TERT fibroblast viability loss – cell-based, RAS-independent, luminescence, dose response (AID 1933); type: functional; conditions: Homo sapiens
BJ [10] = assay: cells; type: functional, cell-based; conditions: Homo sapiens
Escherichia coli [11] = assay: microbe, parasite or virus in culture; remark: listed apart in the source
Bcl-2-related protein A1 [12] = molecular target: T2, Bcl-2-related protein A1 (Mus musculus, UniProt Q07440); assay: displacement of Bid BH3 peptide from Bfl-1 – biochemical, fluorescence polarization, FITC-Bid, mouse, primary screen (AID 432)
T2 sequence (Q07440 whole entry): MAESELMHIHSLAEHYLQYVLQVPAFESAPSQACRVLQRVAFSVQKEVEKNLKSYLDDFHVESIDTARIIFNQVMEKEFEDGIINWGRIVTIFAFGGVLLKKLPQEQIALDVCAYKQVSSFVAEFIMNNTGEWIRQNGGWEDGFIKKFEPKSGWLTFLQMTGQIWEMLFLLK

Bcl-2-related protein A1 [13] = molecular target: T2, Bcl-2-related protein A1; assay: small-molecule antagonists of Bfl-1/BH3 interaction – biochemical, TR-FRET, mouse Bfl-1, confirmation (AID 621);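 note: TR-FRET binding of GST-Bfl-1 to FITC-labelled Bid peptide via terbium antibody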
[14] = Luminescence Cell-Based Dose Response to Identify Activators of Luciferase Translation or Activity in H4-C Neuroglioblastoma Cells. [Related pubchem assays: 1829 (Project Summary), 1814 (Primary HTS)]; type: functional
[15] = Luminescence Cell-Based Dose Response to Identify Activators of 5'UTR Stem-Loop Driven Prion Protein mRNA Translation in H4-C Neuroglioblastoma Cells. [Related pubchem assays: 1829 (Project Summary), 1814 (Primary HTS)]; type: functional
[16] = Luminescence Cell-Based Dose Confirmation to Identify Activators of 5'UTR Stem-Loop Driven Alpha-Synuclein mRNA Translation in H4 Neuroglioblastoma Cells. [Related pubchem assays: 1829 (Project Summary), 1814 (Primary HTS)]; type: functional
[17] = Luminescence Cell-Based Dose Response HTS to Identify Activators of Luciferase Translation or Activity in H4 […] Cells. [Related pubchem assays: 1829 (Project Summary), 1814 (Primary HTS)]; type: functional
H4 = assay: Luminescence Cell-Based Dose Response HTS to Identify Activators of 5'UTR Stem-Loop Driven Prion Protein mRNA Translation in H4 Neuroglioblastoma Cells. [Related pubchem assays: 1829 (Project Summary), 1814 (Primary HTS)]; type: functional; conditions: Homo sapiens
[18] = molecular target: Serine/threonine-protein phosphatase PP1-alpha catalytic subunit (Homo sapiens, UniProt P62136); assay: inhibition of protein phosphatase 1 activity – biochemical, fluorescence, dose response (AID 2394)
[19] = molecular target: Serine/threonine-protein phosphatase (Homo sapiens, UniProt Q9BPW0); assay: inhibition of protein phosphatase 5 activity – biochemical, fluorescence, dose response (AID 2395)
[20] = M. tuberculosis growth inhibition, HTS (AID 449762); type: functional

Sequence of Serine/threonine-protein phosphatase (Q9BPW0 whole entry): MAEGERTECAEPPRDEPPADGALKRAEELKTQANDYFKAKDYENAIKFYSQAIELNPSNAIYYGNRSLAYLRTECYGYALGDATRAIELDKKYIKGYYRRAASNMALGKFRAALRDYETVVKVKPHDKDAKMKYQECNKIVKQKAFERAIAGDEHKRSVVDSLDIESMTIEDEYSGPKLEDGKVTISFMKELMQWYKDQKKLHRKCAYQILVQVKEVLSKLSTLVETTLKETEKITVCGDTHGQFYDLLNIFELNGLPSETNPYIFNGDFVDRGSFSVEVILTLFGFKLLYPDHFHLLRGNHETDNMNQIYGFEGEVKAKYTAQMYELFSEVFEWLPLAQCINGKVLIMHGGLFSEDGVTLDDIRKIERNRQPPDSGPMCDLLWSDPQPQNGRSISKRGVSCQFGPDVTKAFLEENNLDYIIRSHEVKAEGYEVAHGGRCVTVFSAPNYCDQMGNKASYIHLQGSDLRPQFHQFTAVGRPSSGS
Sequence of Serine/threonine-protein phosphatase PP1-alpha catalytic subunit (P62136 whole entry): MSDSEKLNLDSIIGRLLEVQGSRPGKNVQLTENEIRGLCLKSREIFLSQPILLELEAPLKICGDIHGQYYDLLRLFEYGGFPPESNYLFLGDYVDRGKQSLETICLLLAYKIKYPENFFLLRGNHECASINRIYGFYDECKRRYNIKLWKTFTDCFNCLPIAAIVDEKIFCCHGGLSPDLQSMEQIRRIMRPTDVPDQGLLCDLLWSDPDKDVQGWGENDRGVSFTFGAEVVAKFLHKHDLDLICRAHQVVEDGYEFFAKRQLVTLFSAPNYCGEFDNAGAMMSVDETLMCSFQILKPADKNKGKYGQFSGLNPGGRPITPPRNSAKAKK
Sequence of Beta-galactosidase (Q8VNN2 whole entry): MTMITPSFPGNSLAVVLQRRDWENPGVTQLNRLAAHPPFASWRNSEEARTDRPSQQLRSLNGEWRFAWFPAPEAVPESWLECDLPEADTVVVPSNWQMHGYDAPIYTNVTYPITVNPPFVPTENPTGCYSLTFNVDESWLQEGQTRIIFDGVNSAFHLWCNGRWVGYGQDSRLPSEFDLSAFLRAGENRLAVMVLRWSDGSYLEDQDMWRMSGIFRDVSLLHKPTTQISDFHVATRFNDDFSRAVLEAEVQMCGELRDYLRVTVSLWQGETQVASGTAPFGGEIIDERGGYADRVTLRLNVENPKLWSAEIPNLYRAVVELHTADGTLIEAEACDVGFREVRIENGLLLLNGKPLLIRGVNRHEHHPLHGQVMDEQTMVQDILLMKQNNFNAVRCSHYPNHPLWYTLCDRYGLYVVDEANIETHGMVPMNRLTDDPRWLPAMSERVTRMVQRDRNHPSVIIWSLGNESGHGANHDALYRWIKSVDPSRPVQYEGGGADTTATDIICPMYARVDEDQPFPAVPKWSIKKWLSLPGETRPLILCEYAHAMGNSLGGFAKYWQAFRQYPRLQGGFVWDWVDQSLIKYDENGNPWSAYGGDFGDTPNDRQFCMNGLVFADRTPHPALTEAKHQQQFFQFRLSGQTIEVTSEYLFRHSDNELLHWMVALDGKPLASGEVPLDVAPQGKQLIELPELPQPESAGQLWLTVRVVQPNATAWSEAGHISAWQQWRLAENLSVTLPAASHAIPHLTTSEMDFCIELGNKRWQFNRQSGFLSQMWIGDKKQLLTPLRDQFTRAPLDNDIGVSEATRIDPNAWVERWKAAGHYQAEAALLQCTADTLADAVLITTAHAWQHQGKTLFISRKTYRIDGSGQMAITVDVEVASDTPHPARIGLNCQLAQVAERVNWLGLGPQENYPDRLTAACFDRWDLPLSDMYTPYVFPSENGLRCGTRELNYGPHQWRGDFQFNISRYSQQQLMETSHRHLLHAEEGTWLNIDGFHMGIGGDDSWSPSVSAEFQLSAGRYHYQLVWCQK

## Cc1ccc(C(=O)Sc2cccccc2=O)cc1
[1]
  IC50: 0.848 µM (active)
Escherichia coli [2]
  AC50: 17 µM (active)
[3]
  EC50: 25.5 µM (active)
BJ [4]
  EC50: 0.075 µM (active)
BJ [5]
  EC50: 54.9 µM (active)
[6]
  IC50: < 1.25 µM (active)
Beta-galactosidase
  EC50: > 40 µM (inactive)
[7]
  CC50: 11.5 µM (active)
Vero
  CC50: 48.4 µM (active)
[8]
  AC50: 6.06 µM (active)
BJ [9]
  EC50: 0.659 µM (inconclusive)
BJ [10]
  EC50: 26 µM (active)
Escherichia coli [11]
  AC50: 12.7 µM (active)

## C1=C(c2ccc(-c3ccccc3)cc2)Nc2ncnn2C1c1ccco1 (centres undefined)
Bcl-2-related protein A1 [12]
  IC50: > 100 µM (not active)
Bcl-2-related protein A1 [13]
  IC50: > 100 µM (not active)

## CC(=O)Nc1ccc2c(c1)ncn2-c1ccccc1
[14]
  EC50: 0.46 µM (active)
[15]
  EC50: 0.608 µM (active)
[16]
  EC50: 0.218 µM (active)
[17]
  EC50: < 0.1 µM (inconclusive)
H4
  EC50: > 120 µM (not active)

## COCCNC(=O)c1c(N)n(CCC(C)C)c2nc3ccccc3nc12
[18]
  IC50: 56.5 µM (not active)
[19]
  IC50: 13.4 µM (not active)

## CN1CCN(c2ccc(C(=O)c3cn(-c4ccc(F)c(Cl)c4)nn3)cc2)CC1
[7]
  CC50: 15 µM (active)
[20]
  IC50: > 100 µM (active)
